≈ marks a conversion by molar mass, not a printed value.

The nature of one data set: Clearance in human liver microsomes at 1 uM up to 60 mins by LC-MS/MS analysis.
Conditions: not given
The data set is classed as ADME.
In the case of `CC(C)n1cc(S(=O)(=O)c2ccc(NC(=O)[C@@H]3C[C@H]3c3cccnc3)cc2)cn1`, the CLhep predicted at 1 µM is 12 mL/min/kg.

For the molecule `N#CN=C(NCCCCCCOc1ccc(Cl)cc1)Nc1ccncc1` [CHS-828], the CLhep predicted at 1 µM is 15 mL/min/kg.

With `Nc1ccc(CNC(=O)Nc2ccc(S(=O)(=O)c3ccccc3)cc2)cn1`, the CLhep predicted at 1 µM was 5 mL/min/kg.

In the case of `Nc1ccc([C@@H]2C[C@H]2C(=O)Nc2ccc(S(=O)(=O)c3ccccc3)cc2)cn1` (racemic), the CLhep predicted at 1 µM is 6 mL/min/kg.

For `Cc1nn(C(C)C)cc1S(=O)(=O)c1ccc(NC(=O)[C@@H]2C[C@H]2c2cccnc2)cc1` (racemic), the CLhep predicted at 1 µM is 16 mL/min/kg.

In the case of `O=S1(=O)NC(NCc2ccc(S(=O)(=O)N3CCC(N4CCCC4)CC3)cc2)=Nc2ccncc21`, the CLhep predicted at 1 µM was 8 mL/min/kg.

`CCCn1cc(S(=O)(=O)c2ccc(NC(=O)[C@H]3C[C@@H]3c3cccnc3)cc2)cn1`: the CLhep predicted at 1 µM is 13 mL/min/kg.

On to `CC(C)(C)OC(=O)N1C[C@H]2CCN(C(=O)[C@@H]3C[C@H]3c3cccnc3)[C@H]2C1` (racemic), for which the CLhep predicted at 1 µM is 18 mL/min/kg.

Regarding `O=C(/C=C/c1cccnc1)NCCCCC1CCN(C(=O)c2ccccc2)CC1` [DAPORINAD], the CLhep predicted at 1 µM is 15 mL/min/kg.

Consider `O=C(Nc1ccc(S(=O)(=O)c2cnn(CC(F)(F)F)c2)cc1)[C@@H]1C[C@H]1c1cccnc1` (racemic), for which the CLhep predicted at 1 µM was 8 mL/min/kg.

As to `Cc1c(S(=O)(=O)c2ccc(NC(=O)[C@@H]3C[C@H]3c3cccnc3)cc2)cnn1C(C)C` (racemic), the CLhep predicted at 1 µM is 19 mL/min/kg.

On to `O=C(Nc1ccc(S(=O)(=O)c2ccccc2)cc1)[C@@H]1C[C@H]1c1cccnc1` (single isomer, unassigned; enantiomer 2), for which the CLhep predicted at 1 µM is 7 mL/min/kg.

`CC(C)(C)OC(=O)N1C[C@@H]2CCN(C(=O)[C@@H]3C[C@H]3c3cccnc3)[C@@H]2C1` (racemic): the CLhep predicted at 1 µM is 18 mL/min/kg.

For `O=C(NCCCCCCOc1ccc(Cl)cc1)[C@@H]1C[C@H]1c1cccnc1` (racemic), the CLhep predicted at 1 µM was 19 mL/min/kg.

Take `O=C(Nc1ccc(S(=O)(=O)c2ccccc2)cc1)[C@H]1C[C@@H]1c1cccnc1` (single isomer, unassigned; enantiomer 1): the CLhep predicted at 1 µM is 11 mL/min/kg.

In the case of `CCn1cc(S(=O)(=O)c2ccc(NC(=O)[C@@H]3C[C@H]3c3cccnc3)cc2)cn1` (racemic), the CLhep predicted at 1 µM is 8 mL/min/kg.

As for `O=C(Nc1ccc(S(=O)(=O)c2cc(F)cc(F)c2)cc1)[C@@H]1C[C@H]1c1cccnc1` (racemic), the CLhep predicted at 1 µM is 12 mL/min/kg.

On to `O=S1(=O)N=C(NCc2ccc(S(=O)(=O)c3ccccc3)cc2)Nc2ccncc21`, for which the CLhep predicted at 1 µM was 6 mL/min/kg.

A short description of a further data set: Cmax in NCR nude mouse at 10 mg/kg, po bid after 24 hrs. The data set is classed as ADME, organism-based. Further details: dose 10 mg/kg, route oral. The settings on record: in vivo.
For orientation: Cmax means the peak of the concentration-time curve. `CCCn1cc(S(=O)(=O)c2ccc(NC(=O)[C@H]3C[C@@H]3c3cccnc3)cc2)cn1` had a peak concentration (Cmax) of 34.6 µM.

The nature of the next data set: physchem. The conditions noted are these: buffer.
In general, solubility refers to how much of the substance goes into solution per volume. A lower solubility goes with little dissolved substance. Molecule `CC(C)n1cc(S(=O)(=O)c2ccc(NC(=O)[C@@H]3C[C@H]3c3cccnc3)cc2)cn1` had a solubility at 24 h of 59 µM (≈ 24.2 µg/mL).

`N#CN=C(NCCCCCCOc1ccc(Cl)cc1)Nc1ccncc1` [CHS-828] gave a solubility at 24 h of 2.2 µM (≈ 0.818 µg/mL).

`Nc1ccc(CNC(=O)Nc2ccc(S(=O)(=O)c3ccccc3)cc2)cn1`: the solubility at 24 h was determined as 99 µM (≈ 37.9 µg/mL).

`Nc1ccc([C@@H]2C[C@H]2C(=O)Nc2ccc(S(=O)(=O)c3ccccc3)cc2)cn1` (racemic) yielded a solubility at 24 h of 36 µM (≈ 14.2 µg/mL).

Regarding `Cc1nn(C(C)C)cc1S(=O)(=O)c1ccc(NC(=O)[C@@H]2C[C@H]2c2cccnc2)cc1` (racemic), the solubility at 24 h came to 1 µM (≈ 0.425 µg/mL).

The molecule `O=S1(=O)NC(NCc2ccc(S(=O)(=O)N3CCC(N4CCCC4)CC3)cc2)=Nc2ccncc21` showed a solubility at 24 h of 104 µM (≈ 52.5 µg/mL). This solubility at 24 h is about 100-fold higher than that of the molecule before.

Regarding `CCCn1cc(S(=O)(=O)c2ccc(NC(=O)[C@H]3C[C@@H]3c3cccnc3)cc2)cn1`, the concentration in solution (solubility at 24 h) was 16 µM (≈ 6.57 µg/mL). This solubility at 24 h lies about 6.5-fold lower than the previous one.

`CC(C)(C)OC(=O)N1C[C@H]2CCN(C(=O)[C@@H]3C[C@H]3c3cccnc3)[C@H]2C1` (racemic): the concentration in solution (solubility at 24 h) was 165 µM (≈ 59 µg/mL).

Regarding `O=C(Nc1ccc(S(=O)(=O)c2cnn(CC(F)(F)F)c2)cc1)[C@@H]1C[C@H]1c1cccnc1` (racemic), the solubility at 24 h came out at 23 µM (≈ 10.4 µg/mL). Compared with the last molecule, the solubility at 24 h is about 7.2-fold lower.

In turn, `Cc1c(S(=O)(=O)c2ccc(NC(=O)[C@@H]3C[C@H]3c3cccnc3)cc2)cnn1C(C)C` (racemic) showed a solubility at 24 h of 30 µM (≈ 12.7 µg/mL).

For `O=C(Nc1ccc(S(=O)(=O)c2ccccc2)cc1)[C@@H]1C[C@H]1c1cccnc1` (single isomer, unassigned; enantiomer 2), the solubility at 24 h is 15 µM (≈ 5.68 µg/mL).

With `CC(C)(C)OC(=O)N1C[C@@H]2CCN(C(=O)[C@@H]3C[C@H]3c3cccnc3)[C@@H]2C1` (racemic), the solubility at 24 h came out at 165 µM (≈ 59 µg/mL).

Molecule `O=C(NCCCCCCOc1ccc(Cl)cc1)[C@@H]1C[C@H]1c1cccnc1` (racemic) displayed a solubility at 24 h of 13 µM (≈ 4.85 µg/mL).

With `O=C(Nc1ccc(S(=O)(=O)c2ccccc2)cc1)[C@H]1C[C@@H]1c1cccnc1` (single isomer, unassigned; enantiomer 1), the solubility at 24 h was 15 µM (≈ 5.68 µg/mL).

Regarding `CCn1cc(S(=O)(=O)c2ccc(NC(=O)[C@@H]3C[C@H]3c3cccnc3)cc2)cn1` (racemic), the concentration in solution (solubility at 24 h) came to 72 µM (≈ 28.5 µg/mL).

As to `O=C(Nc1ccc(S(=O)(=O)c2cc(F)cc(F)c2)cc1)[C@@H]1C[C@H]1c1cccnc1` (racemic), the solubility at 24 h was 6 µM (≈ 2.49 µg/mL).

Take `O=S1(=O)N=C(NCc2ccc(S(=O)(=O)c3ccccc3)cc2)Nc2ccncc21`: the concentration in solution (solubility at 24 h) was 1 µM (≈ 0.428 µg/mL).

Another data set is described as follows: in vitro. The settings on record: dog, MDCK.
One may read the Papp A→B as the apparent permeability from the apical to the basolateral side of a cell layer. A high value points to ready permeation. In the case of `O=S1(=O)NC(NCc2ccc(S(=O)(=O)N3CCC(N4CCCC4)CC3)cc2)=Nc2ccncc21`, the Papp A→B at 10 µM amounted to 0.1 ×10⁻⁶ cm/s.

In the case of `CCCn1cc(S(=O)(=O)c2ccc(NC(=O)[C@H]3C[C@@H]3c3cccnc3)cc2)cn1`, the Papp A→B at 10 µM worked out at 7.1 ×10⁻⁶ cm/s. This Papp A→B at 10 µM is about 71-fold higher than that of the molecule before.

Take `O=C(Nc1ccc(S(=O)(=O)c2ccccc2)cc1)[C@H]1C[C@@H]1c1cccnc1` (single isomer, unassigned; enantiomer 1): the Papp A→B at 10 µM came to 21.2 ×10⁻⁶ cm/s.

Consider `O=S1(=O)N=C(NCc2ccc(S(=O)(=O)c3ccccc3)cc2)Nc2ccncc21`, for which the Papp A→B at 10 µM stood at 0.8 ×10⁻⁶ cm/s. This Papp A→B at 10 µM lies about 26-fold lower than the previous one.

A short description of another data set: AUC (0 to last) in NCR nude mouse at 10 mg/kg, po bid after 24 hrs. The data set is classed as ADME, organism-based. The arrangement: time 0 - last, dose 10 mg/kg, route oral. The conditions noted are these: plasma.
The AUC(0-t) is the area under the concentration-time curve up to a stated or last time point. Read a low AUC(0-t) as less exposure. The molecule `CCCn1cc(S(=O)(=O)c2ccc(NC(=O)[C@H]3C[C@@H]3c3cccnc3)cc2)cn1` showed an AUC(0-t) at 24 h of 126 µM·h.

A short description of a further data set: Clearance in CD-1 mouse liver microsomes at 1 uM up to 60 mins by LC-MS/MS analysis. The data set is classed as ADME, Microsome.
Conditions: not given
(Liver microsomes are a subcellular fraction often used to study metabolism.)
Consider `CCCn1cc(S(=O)(=O)c2ccc(NC(=O)[C@H]3C[C@@H]3c3cccnc3)cc2)cn1`, for which the CLhep predicted at 1 µM was 79 mL/min/kg.

Regarding `O=C(Nc1ccc(S(=O)(=O)c2ccccc2)cc1)[C@H]1C[C@@H]1c1cccnc1` (single isomer, unassigned; enantiomer 1), the CLhep predicted at 1 µM was 79 mL/min/kg.

The nature of another data set: Clearance in CD-1 mouse hepatocytes at 1 uM up to 3 hrs by LC-MS/MS analysis. The data set is classed as ADME, cell-based, Hepatocyte.
Conditions: not given
For the molecule `CCCn1cc(S(=O)(=O)c2ccc(NC(=O)[C@H]3C[C@@H]3c3cccnc3)cc2)cn1`, the CLhep predicted at 1 µM was 75 mL/min/kg.

As to `O=C(Nc1ccc(S(=O)(=O)c2ccccc2)cc1)[C@H]1C[C@@H]1c1cccnc1` (single isomer, unassigned; enantiomer 1), the CLhep predicted at 1 µM was 78 mL/min/kg.
